What was measured:
male CD rats [1] = experiment: conditioned avoidance, shelf-jump response (S-J); assay type: in vivo; conditions: rat
Excerpt: (§1) The antipsychotic properties of the compounds of this invention were established by standard pharmacologically accepted procedures involving two conditioned avoidance studies in which trained male CD rats (Charles River), 400-450 gm body weight are exposed to a fifteen second warning tone (conditioned stimulus) continued for an additional fifteen seconds accompanied by electric shock. The rat can avoid the electric shock by depression of a response lever (lever-response) or in a different study by jumping to an exposed shelf (shelf-jump response). In either test situation, a response during the initial warning tone is considered an avoidance response while a response during shock delivery is considered an escape response. The avoidance response is determined and expressed as a percentage of total trials from an appropriate number of trials and a 50% block in avoidance responding (AB50) is obtained from a dose-effect regression line. All the data is based upon (mg/kg) dosing of the animals. The shelf-jump response test procedure follows that of Herman et al., Comm. in Psychopharm., 3, pp. 165-171 (1979).
(§2) The following examples illustrate the production of compounds of this invention. After each example the pharmacological evaluation for the compound produced is presented. The conditioned avoidance tests are reported as relative activity for the shelf-jump (S-J) at the intraperitoneal (i.p.) dose administered in mg/kg and the AB50 is presented for the lever-response (L-R) test at the oral (p.o.) dose in mg/kg. The inhibition constant is reported for limbic D-2 binding expressed in nM concentration.

[2] = target: T1, limbic D-2 dopamine receptor (Rattus norvegicus, UniProt P61169); experiment: limbic D-2 binding, 3H-spiroperidol, homogenized limbic brain tissue; conditions: 95% confidence interval in brackets, read-out: Limbic D-2 inhibition constant (Ki)
T1 construct: from tissue
T1 sequence (P61169 whole entry): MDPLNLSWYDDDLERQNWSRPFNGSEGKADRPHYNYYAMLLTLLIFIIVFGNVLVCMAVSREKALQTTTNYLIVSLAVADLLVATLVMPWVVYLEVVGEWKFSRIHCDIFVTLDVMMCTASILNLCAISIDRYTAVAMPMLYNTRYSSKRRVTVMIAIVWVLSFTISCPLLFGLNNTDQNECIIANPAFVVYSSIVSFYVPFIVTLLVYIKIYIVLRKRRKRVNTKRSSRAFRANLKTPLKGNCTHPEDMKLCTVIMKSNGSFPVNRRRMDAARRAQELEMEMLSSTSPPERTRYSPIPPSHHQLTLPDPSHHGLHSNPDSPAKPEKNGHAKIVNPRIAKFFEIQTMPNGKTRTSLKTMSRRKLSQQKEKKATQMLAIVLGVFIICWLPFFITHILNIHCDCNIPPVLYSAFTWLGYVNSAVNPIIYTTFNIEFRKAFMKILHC
Experimental: Binding in the presence of the test compound is expressed as a percent of specific binding (total binding less binding in the presence of 1 μM (+)butaclamol). An inhibition constant (Ki) is calculated for each test compound to categorize its limbic D-2 binding potential. The larger the number, the less potential for dopamine receptor binding and attendant side effects from administration of the antipsychotic agent.
as §2

[3] = antagonism of apomorphine-induced stereotyped behavior; conditions: mouse, in vivo, ip, CF-1 mice, 10 mg/kg apomorphine s.c. 30 min later; measure of extrapyramidal side effects; read-out: ED50 for inhibition of apomorphine-induced stereotyped behavior
male CD rats [4] = experiment: conditioned avoidance, lever-response (L-R); assay type: in vivo; conditions: rat; for L-R relative activity: lever-response conditioned avoidance; for ED50: po, lever-response, p.o., interval in brackets, read-out: L-R AB50 (50% block in avoidance responding)
Excerpt: as §1, §2

| Compound | S-J relative activity (male CD rats [1]; 40 mg/kg i.p.) | Ki [2] [nM] | other results |
| --- | --- | --- | --- |
| Fc1ccc(-n2c3c(c4cc(F)ccc42)CN(CCCCc2ccccn2)CC3)cc1 [Example 6, 8-Fluoro-5-(4-fluorophenyl)-2,3,4,5-tetrahydro-2-[4-(2-pyridinyl)butyl]-2H-pyrido[4,3-b]indole] | Active |  |  |
| Fc1ccc(-n2c3c(c4cc(F)ccc42)CN(CCc2ccc4ccccc4n2)CC3)cc1 [Example 5, 8-Fluoro-5-(4-fluorophenyl)-2,3,4,5-tetrahydro-2-[2-(2-quinolinyl)ethyl]-1H-pyrido[4,3-b]indole] | Active | 1.07 | ED50 [3]: 1.62 mg/kg; L-R relative activity (male CD rats [4]; 40 mg/kg p.o.): Active |
| c1ccc(C2CN(CCCCc3ccncc3)Cc3c2[nH]c2ccccc32)cc1 (stereo not drawn) [Example 2, 2,3,4,5-Tetrahydro-4-phenyl-2-[4-(4-pyridinyl)butyl]-1H-pyrido[4,3-b]indole] |  | 404 | S-J relative activity (male CD rats [1]; 20 mg/kg i.p.): Very weak |
| Fc1ccc(-n2c3c(c4cc(F)ccc42)CN(CCc2ccncc2)CC3)cc1 [Example 7, 8-Fluoro-5-(4-fluorophenyl)-2,3,4,5-tetrahydro-2-[2-(4-pyridinyl)ethyl]-1H-pyrido[4,3-b]indole] | Active | 12 |  |
| Fc1ccc(-n2c3c(c4cc(F)ccc42)CN(CCc2cnccn2)CC3)cc1 [Example 8, 8-Fluoro-5-(4-fluorophenyl)-2,3,4,5-tetrahydro-2-[2-(2-pyrazinyl)ethyl]-1H-pyrido[4,3-b]indole] | Very Active |  | L-R relative activity (male CD rats [4]; 20 mg/kg p.o.): Active; ED50 (male CD rats [4]): 15.2 mg/kg |
| c1ccc(C2CN(CCc3ccccn3)Cc3c2[nH]c2ccccc32)cc1 (stereo not drawn) [Example 4, 2,3,4,5-Tetrahydro-4-phenyl-2-[2-(2-pyridinyl)ethyl]-1H-pyrido[4,3-b]indole] |  | 600 |  |
| Fc1ccc(-n2c3c(c4cc(F)ccc42)CN(CCc2ccccn2)CC3)cc1 [Example 1, 8-Fluoro-5-(4-fluorophenyl)-2,3,4,5-tetrahydro-2-[2-(2-pyridinyl)ethyl]-1H-pyrido[4,3-b]indole] |  | 7 | L-R relative activity (male CD rats [4]; 20 mg/kg p.o.): Active; ED50 (male CD rats [4]): 6.3 mg/kg; S-J relative activity (male CD rats [1]; 20 mg/kg i.p.): Active |
| c1ccc(C2CN(CCCc3cccnc3)Cc3c2[nH]c2ccccc32)cc1 (stereo not drawn) [Example 3, 2,3,4,5-Tetrahydro-4-phenyl-2-[3-(3-pyridinyl)propyl]-1H-pyrido[4,3-b]indole] |  | 140 |  |

From patent US4672117A, “Antipsychotic gamma-carbolines” (American Home Products Corporation, priority 1985, dated 1987)
